Experimental findings from patent US20240335544A1, “M6PR CELL SURFACE RECEPTOR BINDING COMPOUNDS AND CONJUGATES” (LYCIA THERAPEUTICS, INC., priority 2021, published 2024) are described below.

The structures appear in SMILES notation.

Experiment [1] relates to Jurkat cells. Kind of experiment: Uptake of IgE-Alexa488 target by omalizumab conjugates in Jurkat cells. Format: cell-based. The method, then: The omalizumab conjugates of Example 142 were bound to IgE-Alexa488 (prepared according to Example 144), as follows: equal molar ratios of omalizumab (anti-IgE) conjugate and IgE-Alexa488 were added in tissue culture media for 30 minutes at room temperature. The resulting anti-IgE conjugate:IgE antibody-Alexa488 compositions were added to Jurkat cells (100 k cells/50 ul per well, n=2), and Alexa488 fluorescence levels in the cells were measured at 1 hour by flow cytometry. As the fluorescently labelled target (IgE antibody) accumulates in cells, the fluorescence presents a way to measure total intracellular uptake by cells over time.

Experiment [2] addresses CI-M6PR (Homo sapiens, UniProt P11717). Kind of experiment: CI-M6PR SPR binding assay. As to conditions: omalizumab conjugates at DAR of about 4. How it is done:
The CI-M6PR binding affinities of omalizumab (anti-IgE) conjugates of Table 19 were also assessed via SPR binding assay. […] At equivalent DAR (m) values, the koff rate of the omalizumab (anti-IgE) conjugates was 552>529>570.

Chain of CI-M6PR (P11717 41-2491): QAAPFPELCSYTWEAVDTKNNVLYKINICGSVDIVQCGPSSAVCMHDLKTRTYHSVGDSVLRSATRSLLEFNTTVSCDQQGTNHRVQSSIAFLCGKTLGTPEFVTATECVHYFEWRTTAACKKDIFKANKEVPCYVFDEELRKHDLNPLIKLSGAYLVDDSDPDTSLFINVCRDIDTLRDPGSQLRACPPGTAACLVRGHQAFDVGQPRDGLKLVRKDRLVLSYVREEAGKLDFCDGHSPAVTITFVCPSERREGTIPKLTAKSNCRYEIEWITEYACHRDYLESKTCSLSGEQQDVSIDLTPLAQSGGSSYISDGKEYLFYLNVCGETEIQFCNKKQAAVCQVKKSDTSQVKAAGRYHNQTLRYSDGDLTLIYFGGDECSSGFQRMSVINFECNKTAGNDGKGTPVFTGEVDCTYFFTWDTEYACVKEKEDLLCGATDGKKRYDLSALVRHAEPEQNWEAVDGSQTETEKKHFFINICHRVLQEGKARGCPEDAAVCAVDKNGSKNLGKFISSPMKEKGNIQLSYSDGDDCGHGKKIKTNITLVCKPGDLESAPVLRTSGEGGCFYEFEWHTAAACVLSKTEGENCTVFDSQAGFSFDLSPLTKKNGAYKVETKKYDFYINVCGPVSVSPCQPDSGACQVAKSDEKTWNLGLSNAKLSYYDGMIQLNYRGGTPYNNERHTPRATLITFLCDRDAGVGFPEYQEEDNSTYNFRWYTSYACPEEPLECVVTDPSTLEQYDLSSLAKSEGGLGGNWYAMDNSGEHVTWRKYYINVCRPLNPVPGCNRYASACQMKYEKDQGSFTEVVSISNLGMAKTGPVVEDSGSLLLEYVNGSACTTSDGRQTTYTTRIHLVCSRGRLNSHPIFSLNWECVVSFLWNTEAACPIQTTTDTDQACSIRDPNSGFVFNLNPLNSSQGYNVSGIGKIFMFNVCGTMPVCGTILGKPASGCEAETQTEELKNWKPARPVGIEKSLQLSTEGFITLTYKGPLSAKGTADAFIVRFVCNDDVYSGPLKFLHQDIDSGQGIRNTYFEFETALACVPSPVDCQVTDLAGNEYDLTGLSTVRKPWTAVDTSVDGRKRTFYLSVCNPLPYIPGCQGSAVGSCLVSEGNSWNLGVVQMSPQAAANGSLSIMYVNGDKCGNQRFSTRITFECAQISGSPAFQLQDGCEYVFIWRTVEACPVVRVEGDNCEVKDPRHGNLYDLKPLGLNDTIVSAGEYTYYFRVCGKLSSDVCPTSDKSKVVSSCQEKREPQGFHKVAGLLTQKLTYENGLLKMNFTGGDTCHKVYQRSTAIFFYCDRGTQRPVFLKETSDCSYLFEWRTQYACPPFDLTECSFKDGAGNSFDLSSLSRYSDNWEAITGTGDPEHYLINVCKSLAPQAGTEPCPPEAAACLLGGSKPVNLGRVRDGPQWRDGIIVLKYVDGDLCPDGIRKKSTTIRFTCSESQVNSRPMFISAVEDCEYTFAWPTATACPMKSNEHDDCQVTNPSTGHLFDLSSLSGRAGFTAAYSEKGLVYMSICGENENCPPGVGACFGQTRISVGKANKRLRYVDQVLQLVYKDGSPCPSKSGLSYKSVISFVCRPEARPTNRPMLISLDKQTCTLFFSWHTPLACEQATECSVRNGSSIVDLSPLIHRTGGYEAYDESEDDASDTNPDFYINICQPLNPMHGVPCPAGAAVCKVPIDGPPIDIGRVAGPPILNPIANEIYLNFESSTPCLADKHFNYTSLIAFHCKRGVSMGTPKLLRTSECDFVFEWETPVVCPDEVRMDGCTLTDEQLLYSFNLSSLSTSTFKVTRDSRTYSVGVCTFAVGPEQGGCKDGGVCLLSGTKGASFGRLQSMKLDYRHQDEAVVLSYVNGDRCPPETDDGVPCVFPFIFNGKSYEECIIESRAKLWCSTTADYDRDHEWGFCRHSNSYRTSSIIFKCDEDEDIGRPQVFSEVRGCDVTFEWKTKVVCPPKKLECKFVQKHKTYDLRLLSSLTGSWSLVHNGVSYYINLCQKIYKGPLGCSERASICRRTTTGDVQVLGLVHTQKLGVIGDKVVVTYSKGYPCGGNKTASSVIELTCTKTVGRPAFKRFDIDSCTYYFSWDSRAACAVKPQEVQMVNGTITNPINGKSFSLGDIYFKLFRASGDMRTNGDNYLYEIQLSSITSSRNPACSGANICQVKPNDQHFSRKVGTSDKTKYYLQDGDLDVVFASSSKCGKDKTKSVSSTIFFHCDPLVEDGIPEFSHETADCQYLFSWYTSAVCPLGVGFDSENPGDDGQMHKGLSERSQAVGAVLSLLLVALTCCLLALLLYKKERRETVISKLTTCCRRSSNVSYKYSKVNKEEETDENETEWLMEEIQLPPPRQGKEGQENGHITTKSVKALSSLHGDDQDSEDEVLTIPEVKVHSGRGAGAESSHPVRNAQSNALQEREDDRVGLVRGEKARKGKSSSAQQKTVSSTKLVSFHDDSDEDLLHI

In the case of `O=C(NCCCCc1cn(CCOCCOCCOCCOCCC(=O)Oc2c(F)c(F)c(F)c(F)c2F)nn1)Nc1ccc(S[C@@H]2O[C@H](CCP(=O)(O)O)[C@@H](O)[C@H](O)[C@@H]2O)cc1` [Compound 570], the “relative cellular uptake activity of IgE-Alexa488, omalizumab conjugates of Table 15B” value in experiment [1] (1 hour, FIGS. 18-21) was “superior activity to conjugates having a α-S-glycoside configuration (552), and to a conjugate having an α-O-glycoside configuration (520 (I-7), m=8)”. In addition, in experiment [1] (FIG. 23, entire dose response range), the “relative cellular uptake activity of IgE-Alexa488, omalizumab conjugates of Table 19” value was “superior activity to the corresponding conjugates of α-O-glycoside (529) and α-S-glycoside (552)”. Further, in experiment [2], the “Kd (CI-M6PR binding affinity by SPR), relative” value was “superior Kd relative to corresponding α-O (529) and α-S-glycosides (552)”.
